Publication PMC11887451, “Leveraging Immunogenic Cell Death to Enhance the Immune Response against Malignant Pleural Mesothelioma Tumors” (Journal of the American Chemical Society, 2025)

What was measured:
[1] = test system: hepatocellular carcinoma tumors; parameters: method as in PMID 38261008, PMID 36827091; conditions: cited from earlier work
colon cancer cells = test system: colon cancer cells; parameters: method as in PMID 33237764; conditions: immunocompetent mice; cited from earlier work
[2] = test system: patient-derived Meso92 cell line (biphasic MPM); experiment: MTT cytotoxicity assay, 72 h, Meso92; format: cell-based, human; conditions: exposure time 72 h
Description: Cell lines and culture conditions
Mouse malignant mesothelioma cancer cell line AB12, human nonmalignant mesothelioma cancer cell line Met5A (mesothelial cells), mouse macrophage cell line J774 and human monocytic cell line THP-1 were obtained from American Type Culture Collection (ATCC) (Rockville, MD, USA). Human malignant mesothelioma cell lines VMC23 (epithelial), Meso82 (sarcomatous), Meso92 (biphasic), were kindly provided by Prof. Walter Berger (Medical University of Vienna). All cells except for J774 were cultured in RPMI and J774 cells were cultured in DMEM. Both types of media were supplemented with 10% FBS and 1% penicillin-streptomycin (10,000 U/mL). Cells were grown in tissue culture flasks (75 cm2 and 25 cm2, SPL Life Sciences Co., Ltd., Korea). All cell lines were grown at 37 °C in a humidified atmosphere of 95% air and 5% CO 2 and passaged when they reached 80–90% confluency. All Au stock solutions were prepared in 1% DMSO in the respected medium, ensuring that cell viability was not inhibited. The Au concentration in the stock solutions was confirmed through inductively coupled plasma optical emission spectrometry. The stock solution of pemetrexed (10 mM) was prepared in Milli -Q water.
Inhibition of c ell viability assay
(§1) The cytotoxicity of compounds was determined using an MTT colorimetric test. The cells were harvested from culture flasks by trypsinization and seeded into Cellstar 96 -well microculture plates (Greiner Bio -One) at the seeding density of 6000 cells per well (6 × 10^4 cells/mL). After
(§2) the cells were allowed to resume exponential growth for 16 h, they were exposed to drugs at
(§3) different concentrations in media for 72 h. The drugs were diluted in a complete medium at the desired concentration added to each well (100 μL) and serially diluted in other wells. After exposure for 72 h, the media was replaced with MTT in media (5 mg/mL, 100 μL/well) and
(§4) incubated for an additional 50 min. Subsequently, the medium was aspirated, and the purple formazan crystals formed in viable cells were dissolved in DMSO (100 μL/well). Optical densities were measured at 570 nm using a BioTek Synergy H1 microplate and MultiskanTM SkyHigh plate readers. The quantity of viable cells was expressed in terms of treated/control (T/C) values in comparison to untreated control cells, and 50% inhibitory concentrations (IC 50) were calculated from concentration-effect curves by interpolation. An evaluation was based on means from at least three independent experiments, each comprising three replicat es per

[3] = test system: patient-derived Meso84 cell line (sarcomatoid MPM); experiment: MTT cytotoxicity assay, 72 h, Meso84; format: cell-based, human; conditions: exposure time 72 h
Description: Human malignant mesothelioma cancer cell lines JU77 and LO68 were obtained from Cell Bank Australia (Children's Medical Research Institute, Westmead, Australia). Mouse malignant mesothelioma cancer cell line AB12, human nonmalignant mesothelioma cancer cell line Met5A (mesothelial cells), mouse macrophage cell line J774 and human monocytic cell line THP-1 were obtained from American Type Culture Collection (ATCC) (Rockville, MD, USA). Human malignant mesothelioma cell lines VMC23 (epithelial), Meso82 (sarcomatous), Meso92 (biphasic), were kindly provided by Prof. Walter Berger (Medical University of Vienna). All cells except for J774 were cultured in RPMI and J774 cells were cultured in DMEM. Both types of media were supplemented with 10% FBS and 1% penicillin-streptomycin (10,000 U/mL). Cells were grown in tissue culture flasks (75 cm2 and 25 cm2, SPL Life Sciences Co., Ltd., Korea). All cell lines were grown at 37 °C in a humidified atmosphere of 95% air and 5% CO 2 and passaged when they reached 80–90% confluency. All Au stock solutions were prepared in 1% DMSO in the respected medium, ensuring that cell viability was not inhibited.
as §1, §2, §3, §4
DMSO had not impact on the cell viability at the concentrations used.

[4] = test system: extracellular HMGB1 from AB12 cells; experiment: Western blot of extracellular HMGB1 in supernatants; format: cell-based, mouse; conditions: AB12, 5 × IC50, 240 min
Description: cells were lysed with 200 µL of RIPA buffer, scraped, collected into 2 mL microtubes, sonicated for 45 sec on ice and centrifuged at 12000 × g for 20 min at 4 °C.
Protein concentration was measured by BCA Protein Assay Kit (PierceTM). 30 µg protein were reconstituted in loading buffer (5× Laemmli Buffer with 5% DTT) and heated at 95 °C for 10 min. Subsequently, the protein mixtures were resolved on 10% SDS-PAGE gels (BeyoGelTM)by electrophoresis ( 80 V for 20 min followed by 1 00 V for 60 min) and transferred onto a nitrocellulose membrane (250 mA for 2 h).
For Western Blot detection of extracellular HMGB1 protein, AB12 cells were seeded into Cellstar 6-well plates (Greiner Bio -One) at a density of 1 × 10^6 cells/well (2 ml per well). […]
After incubation with HRP-conjugated secondary antibodies (Catalogue Number: 7074P2, Cell Signaling Technology) in 2% BSA (w/v) in wash buffer at RT for 2 h, the membranes were washed with wash buffer 3 times for 5-10 min. Immune complexes were detected with SuperSignal™ West Atto Ultimate Sensitivity Substrate (A38554, Thermo Scientific) and analyzed using enhanced chemiluminescence imaging (Biorad). β-Actin was used as a loading control. […]
GA5010)). Luminescence was measured using Molecular Devices SpectraMax iD5 plate reader. […] The luminescence data was recorded for a total duration of 6 h following the treatment. […]

HMGB1 in AB12 cells = experiment: HMGB1 detection, confocal microscopy; format: cell-based, mouse; conditions: AB12, 5 × IC50
Description: mL per dish). […] Afterwards, the […]
concentrations for 2 h at 37°C. […]
were stored in 1 mL of PBS. The confocal images were acquired by Laser Confocal Scanning […]
dishes were washed twice with 1 mL of PBS. The dishes were then incubated with HMGB1 […]
washed with 1 mL of PBS. Samples were stored in 1 mL of PBS. The confocal images were acquired by Laser Confocal Scanning Microscope (Leica SPE).
AB12 cells were seeded into the confocal dish (Biosharp) at a density of 3 × 10^5 cells/well (1 […]
mL per well). […] The cell culture […]
medium was aspirated and washed with PBS (2 × 1 ml). In a dimly lit setting, a solution of H2DCFDA (2',7'-dichlorodihydrofluorescein diacetate) in 1 × HBSS (10 μM, 1 mL) was added to each well and allowed to incubate for 15 min at 37 °C. Following this, the H 2DCFDA solution was aspirated and the wells were rinsed with HBSS (2 × 1 ml). Subsequently, the cells were treated with fresh colo urless cell culture medium containing compounds of interest at […]
Subsequently, the cells were treated with a culture medium containing 1 μM of Mitotracker TM Deep Red, 1 μM ER-Tracker™ Blue-White DPX and 1 μg/mL of Hoechst 33342 for 30 minutes. […] Images were captured using Laser Confocal Scanning Microscope (Leica SPE) and analyzed using the Microscope Software Platform LAS X Life Science. […]

[5] = test system: human malignant mesothelioma cell line JU77; experiment: MTT cytotoxicity assay, 72 h, JU77; format: cell-based; conditions: exposure time 72 h
[6] = test system: human malignant mesothelioma cell line LO68; experiment: MTT cytotoxicity assay, 72 h, LO68; format: cell-based; conditions: exposure time 72 h
[7] = test system: patient-derived VMC23 cell line (epithelioid MPM); experiment: MTT cytotoxicity assay, 72 h, VMC23; format: cell-based, human; conditions: exposure time 72 h
[8] = test system: human nonmalignant mesothelioma cell line Met5A; experiment: MTT cytotoxicity assay, 72 h, Met5A; format: cell-based; conditions: exposure time 72 h
[9] = test system: AB12 cells in BALB/c mice; experiment: In vivo vaccination model; parameters: species or system mouse; conditions: within the first 30 days after vaccination, n = 8
Description: Initially, AB12 cells underwent pretreatment with varying concentrations of Au(III) complexes, and the induced cell death and release of desired ICD biomarkers were monitored over time. Upon reaching a cell death rate of 65%–75%, BALB/c mice (n = 8) were subcutaneously injected in the left flank with a vaccine containing 3 × 10^5 of live/dying/dead cells, while the vehicle group received injections of PBS. Seven days postvaccine administration, the immunized mice were rechallenged by inoculating the same number of live AB12 cells (without any prior treatment) into the right flanks (Figure 5A). The progression of tumor growth on the right flanks was monitored using a caliper.
AB12 cells were seeded into Cellstar 24-well plates (Greiner Bio-One) at a density of 1.8 × 104
cells/ml (1 ml per well) and allowed to grow exponentially for 16 hours. Subsequently, the
medium was replaced with 1 ml of fresh medium containing compounds of interest at
predetermined concentrations (with a minimum of 4 wells per treatment condition). These
concentrations were selected to induce 65-75% cell death.
Subsequently, the culture
medium was aspirated, and the cells were washed twice with 1 mL of PBS. The cell
concentration was adjusted to 3 × 10^5 cells (including dead/dying/live cells) per 100 μL of PBS,
and the ratio of dead/live cells was assessed using the Invitrogen Countess 3 cell counter. In
the subsequent experiment, BALB/c mice (8 mice per group) were subcutaneously injected
with 0.1 mL of AB12 cells (3 × 10^5 cells/mL, including dead/dying/live cells) or the
corresponding vehicle (PBS) on the left flank. Tumor growth was monitored daily.
After 7 days, the mice were subcutaneously injected with
0.1 mL of AB12 cells (3 × 10^5 cells/mL, live cells) on the right flank. Regular measurements
of body weights and tumor sizes were taken. Mice that developed palpable tumors were
euthanized for further analysis.

[10] = test system: murine malignant mesothelioma cell line AB12; experiment: MTT cytotoxicity assay, 72 h, AB12; format: cell-based, mouse; conditions: exposure time 72 h

CCn1cc[n+](CC)[c]1[Au-][C]#CCOC(=O)[C@@]1(C)CC[C@]2(C)CC[C@]3(C)C(=CC(=O)[C@@H]4[C@@]5(C)CC[C@H](OC(=O)CCCCC[P+](c6ccccc6)(c6ccccc6)c6ccccc6)C(C)(C)[C@@H]5CC[C@]43C)[C@@H]2C1.[Br-] [Au4]
tumor-free time of vaccinated mice [1]: more than 30 days

Cc1cc(C)c(-n2cc[n+](CCO)[c]2[Au-][c]2n(-c3c(C(C)C)cccc3C(C)C)c3c([n+]2-c2c(C(C)C)cccc2C(C)C)C(=O)c2ccccc2C3=O)c(C)c1 [Au1]
tumor-free time of vaccinated mice (colon cancer cells): more than 42 days

CCCC[N+](CCCC)=C1[S][Au-]2([S]1)[c]1ccccc1Cc1cccc[n+]12.F[P-](F)(F)(F)(F)F (stereo not drawn) [2C]
IC50 [2]: 3100 ± 700 nM | IC50 [3]: 3900 ± 700 nM | extracellular HMGB1 in supernatant, Western Blot [4]: presence of extracellular HMGB1 | HMGB1 expression, confocal microscopy (HMGB1 in AB12 cells): confirmed by confocal microscopy | IC50 [5]: 2700 ± 400 nM | IC50 [6]: 3000 ± 300 nM | IC50 [7]: 2400 ± 500 nM | IC50 [8]: 1400 nM | mice that developed tumors after vaccination [9]: ≈ 50% | IC50 [10]: 2700 ± 300 nM
